Entries after “also recorded” stand apart in the source; their conditions may differ. Read-outs that look alike come from different tables or passages of the source.
Assays:
[1] = tested on: mice; test: General anesthesia in mice (MAC for loss of righting reflex); assay type: in vivo; details: inhaled, closed microcircuit
Protocol: In a method to measure the minimum alveolar concentration (MAC) for Loss Of Righting Reflex (MACLORR), for assessing the performance of a compound as a general anesthetic, mice were placed in a 3.5 cm diameter, 14.5 cm long acrylic cylinder connected on either end via unidirectional valves to a closed microcircuit containing a carbon dioxide absorbent vessel, latex balloon breathing bag, sampling port, and 100 mL glass syringe-driven piston. […] The procedures for measuring MACLORR and MAC, as well as general methods for measuring agent concentrations by gas chromatography, have been described in Deady J E, Koblin D D, Eger E I, 2nd, Heavner J E, D'Aoust B: Anesthetic potencies and the unitary theory of narcosis. Anesth Analg 1981; 60: 380-4; Brosnan R J, Thiesen R: Increased NMDA receptor inhibition at an increased Sevoflurane MAC. BMC Anesthesiol 2012; 12: 9; and Brosnan R J: GABA(A) receptor antagonism increases NMDA receptor inhibition by isoflurane at a minimum alveolar concentration. Vet Anaesth Analg 2011; 38: 231-9, the disclosures of which are incorporated by reference in their entireties.

[2] = tested on: NMDA receptors; test: NMDA receptor modulation at a saturated aqueous phase concentration; assay type: cell-based

Row | SMILES | general anesthesia in mice [1] | modulation/inhibition of NMDA receptors ([2]; listed as 1-bromo-1,1,2-trifluoro-2-(trifluoromethoxy)-ethane) | modulation/inhibition of NMDA receptors [2]
1 | FC(OC(F)(F)F)C(F)(F)Br (stereo not drawn) [Ethane, 1-bromo-1,1,2-trifluoro-2-(trifluoromethoxy)-] | produced general anesthesia | devoid of NMDA receptor effects; also recorded: does not modulate NMDA receptors | 
2 | COC(F)(C(F)(F)F)C(F)(F)F [Propane, 1,1,1,2,3,3,3-heptafluoro-2-methoxy-] |  |  | inhibits NMDA receptors

Source: patent US11696898B2, “Halogenated ether compounds and methods of inducing anesthesia” (The Regents of the University of California, priority 2014, dated 2023)
